The source of these data is patent US20150266864A1, “HETEROAROMATIC COMPOUNDS, METHOD FOR PREPARING THE COMPOUNDS, PHARMACEUTICAL COMPOSITIONS, USES AND METHOD FOR TREATING ACUTE AND CHRONIC PAIN” (CRISTÁLIA PRODUTOS QUÍMICOS FARMACÊUTICOS LTDA, priority 2012, published 2015).

The term melting point denotes the temperature, or range, at which the solid turns liquid.

Structures can show the parent of a compound that is named as a salt.

Data set [1] concerns Swiss-type male mice. Description: RotaRod performance test, motor coordination. The procedure: The assessment of motor coordination in mice, by the rotarod performance test, was carried out to detect any possible sedative or muscle relaxant effect caused by the compounds of the present invention, previously tested in acute and neuropathic pain models. This test was carried out according to the method of described by Dunham & Miya and animal motor coordination was evaluated using RotaRod apparatus [Dunham M. S. & Miya. R. T. (1957). J. Amer. Pharmac. Assoc. Sci. Edit. 1957, 46, 208-209].
The RotaRod apparatus (Model 412 EFF, Insight Equipements, Brazil) is a device that measures motor coordination and thus evaluates balance alterations in mice. The apparatus consists of an acrylic box splited into four compartments with a rotational cylinder among them. The cylinder rotates at constant speed driven by a motor and regulated to the constant speed mode of 5-37 revolutions per minute (rpm). In this study the speed was set up to 9 rpm.
To remain on the rotational cylinder, the animal needs to move around, so that the motor coordination can be quantified. The four compartments have drop detection system, through the impact, a microprocessor circuit, for timing the permanence of the animal at the compartment, and for counting the number of falls.
The day before the test, Swiss-type male mice (19-25 g) were placed on the rotational cylinder, set up to the constant speed mode of 9 rpm for adaptation and learning. A group of 10 mice were used for each tested compound, and the total period spent on the rotational cylinder (in seconds) was recorded for a period of 180 seconds (cut off time) and it was accept a maximum of three falls for each animal. Motor coordination was assessed at times 0 (before treatment), 15, 30, 60 and 120 minutes after compounds administration at a dose of 32.25 μmol/kg.
All compounds were administered intraperitoneally (ip).
The Student's t-test was also used to compare means between two experimental groups. Differences were considered significant when p<0.05.
In general terms: The rotarod test checks motor coordination on a turning rod.

Data set [2] concerns rats subjected to sciatic nerve CCI. Description: Chronic constrictive injury (CCI) of the sciatic nerve, thermal hyperalgesia, paw withdrawal test. The format is in vivo, rat. As for the experimental part:
The chronic constrictive injury (CCI) was induced by sciatic nerve ligation according to the method described by Bennett and Xie [Bennett. G. J.; Xie, Y. K. Pain […], 33: 87-107]. Male Wistar rats, weighing 180-240 g, were anesthetized with a mixture of ketamine and xylazine (60 mg/kg and 5 mg/kg, respectively), intraperitoneally. Through an incision of 0.5 cm (parallel and spaced about 10 mm from the left femur) the sciatic nerve was identified. With a thin glass rod, a small segment of sciatic nerve was exposed and four loosely ligatures were placed around the sciatic nerve spaced 1 mm each other using a 3-0 silk suture thread. After the procedure, the skin was sutured and a topical antiseptic was applied.
To assess animal behavior in response to hyperalgesic phenomenon resulting from sciatic nerve chronic constrictive injury, the model described by Hargreaves and Dubner was used [Hargreaves K., Dubner R., Brown F., Flores C., Joris J. Pain 1988, 32 (1): 77-88]. In this regard, paw withdrawal in response to a painful phenomenon was performed. This is a nociceptive test which involves a peripheral short thermal stimulus induced by the radiant heat of an incandescent lamp bulb. […] Radiant heat has an advantage over the other modes of thermal stimulation in that it produces no tactile stimulus. [Le Bars D., Gozariu M., Cadden S. W. Pharmacology Reviews, 2001, 53 (4), 597-652]. In this assay, a plantar test analgesimeter (ITC Life Science Inc, USA) was used.
Animals were placed in transparent acrylic boxes with tempered glass pane floor for 40 minutes to acclimate. After this period, the radiant heat was applied to the footpads of animals's hindpaws until they make the movement of paw withdrawal. The paw withdrawal latency was defined as the time recorded from the beginning of the radiant heat stimulus and the paw withdrawal. For each paw, three latency records were made, and the average value was used to define the paw withdrawal time control The maximum time that each animal was exposed to the radiant heat source (cut-off) was defined as three times the paw withdrawal time control, to avoid tissue injuries in animals's paws.
The day before surgery, rats, defined as “control before surgery”, were placed in acrylic boxes to the paw withdrawal test. On the 7th day after the surgery (CCI), the paw withdrawal test was again performed in order to verify neuropathic pain has been effectively developed in the left paw—defined as “post-surgery control.”
The paw withdrawal test was assessed during the days 1, 3, and 7 of the treatment (with amitriptyline hydrochloride or the compounds of examples of the instant invention) and on days 1, 3, and 7 after treatment interruption.
(§1) Differences were considered significant when p<0.05.

In data set [3] the test system is rats subjected to SNL. In words: Spinal nerve ligation (SNL) L5 model, mechanical allodynia (digital Von Frey). The format is in vivo, rat. The following applies: after 7 days of treatment, 32.25 μmol/kg ip. As for the experimental part:
(§2) This experimental model was proposed by Kim and Chung [Kim, S. H.; Chung, J. M. Pain 1992, 50: 355-363] and consists of ligation of spinal nerves. Male Wistar rats, 180-220 g, were anesthetized with a mixture of ketamine and xylazine (60 mg/kg and 5 mg/kg, respectively) intraperitoneally. After the dorsal region asepsy, an incision was made between L5 and S1. The L6 transverse process was removed for locating the nerves L4 and L5, which were carefully isolated, and tight ligation of the L5 nerve with 6.0 silk thread was made, interrupting flow of the axon of the nerve. After this procedure, para-spinal muscles and skin were sutured, and then a topical antiseptic was applied. False operated animals (sham) were subjected to the same procedure, however the spinal nerve was not ligated.
To evaluate the development of mechanical allodynia, digital analgesimeter (Model EFF301; Insight Equipments), digitalized version coupled to a pointed filament (Von Frey model variant) was used. This test aims to assess changes in tactile sensitivity in response to a mechanical stimulus as a result of a neural damage. The device consisted of a hand-held force transducer fitted with a sensor tip, through which a pressure with increasing strength is applied against the footpad of the animals hindpaw to assess the threshold of paw withdrawal, that is, the digital analgesimeter records the maximal strength, in grams (g), in which the animal withstands until the paw withdrawal reflex.
Animals were placed in individual acrylic boxes and let to acclimate for 30 min before the beginning of the test. After this period, the thresholds of hindpaw withdrawal were determinded. For each hindpaw, five records of the withdrawal thresholds were made, and the average for each hindpaw was defined as the paw withdrawal threshold control.
(§3) The treatment started on the 7th day after surgery. Compounds were diluted in water or DMSO and administered through intraperitoneal route on daily basis, during 7 days, at a dose of […]. The effectiveness of tested compounds was assessed on days 1, 3, and 7 days after treatment, always before the next administration of the compound. Latencies were also assessed on days 1, 3, and 7 after treatment interruption.
as §1

The subject of data set [4] is rats subjected to SNL. Description: Spinal nerve ligation (SNL) L5 model, thermal hyperalgesia. The format is in vivo, rat. As for the experimental part: as §2
This method aims to evaluate the animal behavior in response to hyperalgesic phenomenon resulting from the injury induced by the ligament of spinal nerve (L5). In this regard, paw withdrawal in response to thermal stimulus was used, and the thermal stimulus was induced by the radiant heat of an incandescent lamp bulb. The paw withdrawal test was performed as described for the assessment of thermal hyperalgesia in the sciatic nerve chronic constrictive injury model.
as §1, §3

The mark [5] stands for this setting: male, Swiss, mouse, in vivo, 30 min.
Setting [6] is: male, Swiss, mouse, in vivo, 60 min.
Where [7] appears, read: male, Swiss, mouse, in vivo, 120 min.
The mark [8] stands for this setting: first day of treatment, 32.25 μmol/kg ip.
[9] abbreviates: after 7 days of 32.25 μmol/kg ip.

As to `Cl.Cl.Fc1ccc(-c2n[nH]cc2CCN2CCCCC2)cc1.O` (hydrate or solvate) [C3, 1-{2-[3-(4-fluorophenyl)-1H-pyrazol-4-yl]ethyl}piperidine dihydrochloride monohydrate], the melting point was 277 to 279 °C.

Regarding `Cl.Fc1ccc(-c2nocc2CCN2CCCCC2)cc1` [C5, 1-{2-[3-(4-fluorophenyl)-1,2-oxazol-4-yl]ethyl}piperidine hydrochloride], the “Mice residence time on the rotational cylinder” value (shortened to “Mice residence time”) in data set [1] (setting [5]) turned out to be 178.6 s; in data set [1] (setting [6]), 173.4 s; in data set [1] (setting [7]), 179.2 s; in data set [1] (male, Swiss, mouse, in vivo, ip, 15 min) it was 180.0 s. Besides, the “antinociceptive effect, paw withdrawal latency vs post-surgery control” value (shortened to “antinociceptive effect … vs post-surgery control”) in data set [2] (setting [8]) is reported as “antinociceptive effects in the first day of treatment”.

Consider `CC(=O)O.Fc1ccc(-c2ncncc2CCN2CCCCC2)cc1` [C6, 1-{2-[4-(4-fluorophenyl)pyrimidin-5-yl]ethyl}piperidinium acetate with 0.8 water molecules], for which the “antinociceptive effect … vs post-surgery control” value in data set [2] (setting [8]) is “antinociceptive effects in the first day of treatment”.

`CCOC(=O)C1(c2ccccc2)CCN(CCc2c[nH]nc2-c2ccc(F)cc2)CC1` [C18, Ethyl 1-{2-[3-(4-fluorophenyl)-1H-pyrazol-4-yl]ethyl}-4-phenylpiperidine-4-carboxylate] registered a melting point of 138 to 139.5 °C. Further, the “antinociceptive effect … vs post-surgery control” value in data set [2] (setting [8]) was “antinociceptive effects in the first day of treatment”.

`CN(C)CCC=C1c2ccccc2CCc2ccccc21` [amitriptyline hydrochloride, reference compound]: the “paw withdrawal threshold, mechanical allodynia” value in data set [3] is listed as “no significant threshold increase”. The “Mice residence time” value in data set [1] (setting [5]) is given as 151.0 s; in data set [1] (setting [6]) it was 175.8 s; in data set [1] (setting [7]), 161.8 s. For the same compound, in data set [4] (setting [9]), the “effect on thermal hyperalgesia after treatment interruption” value is given as “the analgesic effect is not maintained”. For the same compound, in data set [4] (after 7 days of treatment, 32.25 μmol/kg ip), the “paw withdrawal latency, thermal hyperalgesia” value is on record as “significantly increased”. Also, the “antinociceptive effect after treatment interruption” value in data set [2] (setting [9]) is “the antinociceptive effect was observed only after the first day”. For the same compound, the paw withdrawal latency result in data set [2] (day 7 of treatment, 32.25 μmol/kg ip daily, p<0.005) is “significantly increased”.

For `CCN1CCN(CCc2c[nH]nc2-c2ccc(F)cc2)CC1.Cl.Cl.Cl.O.O.O` (hydrate or solvate) [C12, 1-ethyl-4-{2-[3-(4-fluorophenyl)-1H-pyrazol-4-yl]ethyl}piperazine trihydrochloride trihydrate], the melting point is 226 to 237 °C (dec.).

Take `CC(=O)O.OC1(c2ccc(Cl)cc2)CCN(CCc2cncnc2-c2ccc(F)cc2)CC1` [C16, 4-(4-chlorophenyl)-4-hydroxy-1-{2-[4-(4-fluorophenyl)pyrimidin-5-yl]ethyl}piperidinium acetate]: in data set [1] (15 minutes after administration, 32.25 μmol/kg), the “animal residence time on the rotational cylinder compared to controls” value was “equal to the time observed for the negative control, and significantly higher than the time observed for the control amitriptyline hydrochloride”. Moreover, the “Mice residence time” value in data set [1] (T 15 min after ip administration, 32.25 μmol/kg, 9 rpm, cut off 180 s, mean ± SEM) was found to be 178.6 s; in data set [1] (T 30 min after ip administration, 32.25 μmol/kg (diazepam 2 mg/kg), 9 rpm, cut off 180 s, mean ± SEM), 178.8 s; in data set [1] (T 60 min after ip administration, 32.25 μmol/kg (diazepam 2 mg/kg), 9 rpm, cut off 180 s, mean ± SEM), 150.8 s; in data set [1] (T 120 min after ip administration, 32.25 μmol/kg (diazepam 2 mg/kg), 9 rpm, cut off 180 s, mean ± SEM), 126.3 s. Further, the “antinociceptive effect … vs post-surgery control” value in data set [2] (setting [8]) is “antinociceptive effects in the first day of treatment”. Further, in data set [2] (first day of treatment, 32.25 μmol/kg ip, p<0.05 or p<0.005), the “latency increase, statistical significance” value is “the latency increase was statistically significant”.

`Fc1ccc(-c2n[nH]cc2CCN2CCCCC2)cc1` [C1, 1-{2-[3-(4-fluorophenyl)-1H-pyrazol-4-yl]ethyl}piperidine] had a melting point of 145 to 146 °C.

As for `Cl.Cl.Fc1ccc(-c2n[nH]cc2CCN2CCOCC2)cc1.O` (hydrate or solvate) [C9, 4-{2-[3-(4-fluorophenyl)-1H-pyrazol-4-yl]ethyl}morpholine dihydrochloride monohydrate], the melting point is 113 to 126 °C (dec.).
